In patent US6465491B2, “6-phenylpyridyl-2-amine derivatives” (Pfizer Inc., priority 1996, dated 2002):
Where a name gives a salt, the structure may show the parent alone.

melting point | Compound
148 to 150 °C | COCC(=O)N1CCN(CCc2ccc(-c3cccc(N)n3)cc2)CC1 [Example 11, 1-(4-{2-[4-(6-Amino-pyridin-2-yl)-phenyl]-ethyl}-piperazin-1-yl)-2-methoxy-ethanone]
215 to 230 °C (dec.) | Nc1cccc(-c2ccc(CCNC3C4CC5CC(C4)CC3C5)cc2)n1 (stereo not shown) (as salt: hydrochloride) [Example 116, 6-{4-[2-(Adamantan-2-ylamino)-ethyl]-phenyl}-pyridin-2-ylamine]
85 to 88 °C | CC(C)CN1CCN(CCc2ccc(-c3cccc(N)n3)cc2)CC1 [Example 17, 6-{4-[2-(4-Isobutyl-piperazin-1-yl)-ethyl]-phenyl}-pyridin-2-ylamine]
102 to 104 °C | Nc1cccc(-c2ccc(CCN3CCN(C(=O)Oc4ccccc4)CC3)cc2)n1
152 to 154 °C | Nc1cccc(-c2ccc(CCN3CCN(C(=O)c4ccco4)CC3)cc2)n1 [Example 7, (4-{2-[4-(6-Amino-pyridin-2-yl)-phenyl]-ethyl}-piperazin-1-yl)-furan-2-yl-methanone]
176 to 180 °C | Nc1cccc(-c2ccc(CCN3CCC4(CC3)NC(=O)N(CCc3ccccc3)C4=O)cc2)n1 (as salt: hydrochloride) [Example 57, 8-{2-[4-(6-Amino-pyridin-2-yl)-phenyl]-ethyl}-3-phenethyl-1,3,8-triaza-spiro[4.5]decane-2,4-dione]
189 to 192 °C (dec.) | Nc1cccc(-c2ccc(CN3CC4C(N)C4C3)cc2)n1 (stereo not shown) (as salt: hydrochloride)
252 to 256 °C | CC(Cc1ccccc1)N1CCN(CCc2ccc(-c3cccc(N)n3)cc2)CC1 (stereo not shown) (as salt: hydrochloride) [Example 54, 6-(4-{2-[4-(1-Methyl-2-phenyl-ethyl)-piperazin-1-yl]-ethyl}-phenyl)-pyridin-2-ylamine]
100 °C (dec.) | Nc1cccc(-c2ccc(CCN3CCC(c4ccccc4)C3)cc2)n1 (stereo not shown) (as salt: hydrochloride) [Example 26, 6-{4-[2-(3-Phenyl-pyrrolidin-1-yl)-ethyl]-phenyl}-pyridin-2-ylamine]
125 to 127 °C | Nc1cccc(-c2ccc(CCN3CCN(C(=O)c4ccccc4)CC3)cc2)n1 [Example 25, (4-{2-[4-(6-Amino-pyridin-2-yl)-phenyl]-ethyl}-piperazin-1-yl)-phenyl-methanone]

Further lines, the molecule ahead of its results:

Compound | melting point
Nc1cccc(-c2ccc(CCN3CCC(NC(=O)Cc4ccc(F)cc4)C3)cc2)n1 (stereo not shown) [Example 56, N-(1-{2-[4-(6-Amino-pyridin-2-yl)-phenyl]-ethyl}-pyrrolidin-3-yl)-2-(4-fluoro-phenyl)-acetamide] | 90 °C (dec.)
Nc1cccc(-c2ccc(CCNCCCCCc3ccccc3)cc2)n1 [Example 126, 6-{4-[2-(5-Phenyl-pentylamino)-ethyl]-phenyl}-pyridin-2-ylamine] | 60 to 70 °C
Nc1cccc(-c2ccc(CNCCc3ccccc3)cc2)n1 (as salt: hydrochloride) [Example 135, 6-[4-(Phenethylamino-methyl)-phenyl]-pyridin-2-ylamine] | 236 to 238 °C
NC(=O)CNC1C2CN(CCc3ccc(-c4cccc(N)n4)cc3)CC21 (stereo not shown) [Example 52, 2-(3-{2-[4-(6-Amino-pyridin-2-yl)-phenyl]-ethyl}-3-aza-bicyclo[3.1.0]hex-6-ylamino)-acetamide] | 140 °C (dec.)
CN1CC2CC1CN2CCc1ccc(-c2cccc(N)n2)cc1 (stereo not shown) (as salt: hydrochloride) | 132 °C (dec.)
Nc1cccc(-c2ccc(CCCNC3CCc4ccccc4C3)cc2)n1 (stereo not shown) (as salt: hydrochloride) [Example 127, 6-{4-[3-(1,2,3,4-Tetrahydro-naphthalen-2-ylamino)-propyl]-phenyl}-pyridin-2-ylamine] | 120 to 130 °C
Cc1cccc(N2CCN(CCc3ccc(-c4cccc(N)n4)cc3)CC2)c1 [Example 8, 6-{4-[2-(4-m-Tolyl-piperazin-1-yl)-ethyl]-phenyl}-pyridin-2-ylamine] | 158 to 160 °C
Nc1cccc(-c2ccc(CCCN3CCN(CCc4ccccc4)CC3)cc2)n1 (as salt: hydrochloride) [Example 129, 6-{4-[3-(4-Phenethyl-piperazin-1-yl)-propyl]-phenyl}-pyridin-2-ylamine] | 125 to 140 °C
Nc1cccc(-c2ccc(CCN3CCN(C(=O)Cc4ccc(F)cc4)CC3)cc2)n1 | 143 to 145 °C
Cc1ccc(NC(=O)N2CCN(CCc3ccc(-c4cccc(N)n4)cc3)CC2)cc1 [Example 30, 4-{2-[4-(6-Amino-pyridin-2-yl)-phenyl]-ethyl}-piperazine-1-carboxylic acid p-tolyl-amide] | 160 to 162 °C
Nc1cccc(-c2ccc(CCN3CCCC(N)C3)cc2)n1 (stereo not shown) (as salt: hydrochloride) [Example 86, 6-{4-[2-(3-Amino-piperidin-1-yl)-ethyl]-phenyl}-pyridin-2-ylamine] | 150 °C (dec.)
Nc1cccc(-c2ccc(CCN3CCN(C(=O)C4CCCC4)CC3)cc2)n1 [Example 13, (4-{2-[4-(6-Amino-pyridin-2-yl)-phenyl]-ethyl}-piperazin-1-yl)-cyclopentyl-methanone] | 185 to 187 °C
Nc1cccc(-c2ccc(CCNC34CC5CC(CC(C5)C3)C4)cc2)n1 (as salt: hydrochloride) [Example 115, 6-{4-[2-(Adamantan-1-ylamino)-ethyl]-phenyl}-pyridin-2-ylamine] | 200 to 220 °C (dec.)
Nc1cccc(-c2ccc(CCN3C4CCC3CC(NC(=O)Cc3ccc(F)cc3)C4)cc2)n1 (stereo not shown) (as salt: hydrochloride) | 160 °C (dec.)
Nc1cccc(-c2ccc(CCNC3CC4COCC(C3)N4)cc2)n1 (stereo not shown) (as salt: hydrochloride) [104] | 100 °C (dec.)
Nc1cccc(-c2ccc(CCN3CCC(N)(C(=O)NCc4ccccc4)CC3)cc2)n1 (as salt: hydrochloride) [Example 59, 4-Amino-1{-2-[4-(6-amino-pyridin-2-yl)-phenyl]-ethyl}-piperidine-4-carboxylic acid benzylamide] | > 240 °C (dec.)
Nc1cccc(-c2ccc(CCN3CCN(CC(O)c4ccccc4)CC3)cc2)n1 (stereo not shown) (as salt: hydrochloride) [Example 103, 2-(4-{2-[4-(6-Amino-pyridin-2-yl)-phenyl]-ethyl}-piperazin-1-yl)-1-phenyl-ethanol] | 235 °C (dec.)
Nc1cccc(-c2ccc(CCNC3CCN(C(=O)Nc4ccccc4)C3)cc2)n1 (stereo not shown) (as salt: hydrochloride) [Example 80, 3-{2-[4-(6-Amino-pyridin-2-yl)-phenyl]-ethylamino}-pyrrolidine-1-carboxylic acid phenylamide] | 130 °C (dec.)
CN1CCN(CCc2ccc(-c3cccc(N)n3)cc2)CC1 (as salt: hydrochloride) [Example 109, 6-{4-[2-(4-Methyl-piperazin-1-yl)-ethyl]-phenyl}-pyridin-2-ylamine] | 170 °C (dec.)
Nc1cccc(-c2ccc(CCN3CCC(NC(=O)NCc4ccccc4)C3)cc2)n1 (stereo not shown) (as salt: hydrochloride) [Example 73, 1-(1-{2-[4-(6-Amino-pyridin-2yl)-phenyl]-ethyl}-pyrrolidin-3-yl)-3-benzyl-urea] | 90 °C (dec.)
Nc1cccc(-c2ccc(CCN3C4CCC3CC(NC(=O)c3ccccc3)C4)cc2)n1 (stereo not shown) (as salt: hydrochloride) | 211 °C (dec.)
